Tested on: panel of nearly 500 cancer cell lines
Experiment: Cancer Cell Line Encyclopedia profiling, 3-day CellTiter-Glo
Type: cell-based
Set-up: Amax: unit not given here

## CC(=O)c1c(C)c2cnc(Nc3ccc(N4CCNCC4)cn3)nc2n(C2CCCC2)c1=O [Palbociclib, reference compound]
769p (kidney)
  Amax: -52.63
8305c (thyroid)
  Amax: -51.0145
8505c (thyroid)
  Amax: -0.08134
COV318
  EC50: > 8 µM
COV504
  EC50: > 8 µM
GLC82
  EC50: 0.00254 µM
HCC15
  EC50: > 8 µM
HEC-251
  EC50: > 8 µM
HEY A8
  EC50: 0.947 µM
Homo sapiens, 22Rv1
  EC50: 1.22 µM
Homo sapiens, 639-V
  EC50: > 8 µM
Homo sapiens, 769-P
  EC50: > 8 µM
Homo sapiens, 8305C
  EC50: 0.576 µM
Homo sapiens, 8505C
  EC50: > 8 µM
Homo sapiens, A 172
  EC50: > 8 µM
Homo sapiens, A204
  EC50: 0.407 µM
Homo sapiens, A253
  EC50: > 8 µM
Homo sapiens, A549
  EC50: 1.14 µM
Homo sapiens, A673
  EC50: > 8 µM
Homo sapiens, A2058
  EC50: > 8 µM
Homo sapiens, A2780
  EC50: 1.9 µM
Homo sapiens, A-375
  EC50: 2.72 µM
Homo sapiens, AMO1
  EC50: > 8 µM
Homo sapiens, AN3-CA
  EC50: 5.91 µM
Homo sapiens, ASPC1
  EC50: > 8 µM
Homo sapiens, AU565
  EC50: 0.993 µM
Homo sapiens, AZ-521
  EC50: > 8 µM
Homo sapiens, BFTC-909
  EC50: > 8 µM
Homo sapiens, BGC-823
  EC50: > 8 µM
Homo sapiens, BL-41
  EC50: > 8 µM
Homo sapiens, BT-20
  EC50: > 8 µM
Homo sapiens, BT-474
  EC50: 2.09 µM
Homo sapiens, BT-549
  EC50: > 8 µM
Homo sapiens, C2BBe1
  EC50: 1.73 µM
Homo sapiens, CAKI-2
  EC50: > 8 µM
Homo sapiens, CAL-27
  EC50: > 8 µM
Homo sapiens, CAL-85-1
  EC50: > 8 µM
Homo sapiens, CAMA-1
  EC50: > 8 µM
Homo sapiens, CHL-1
  EC50: > 8 µM
Homo sapiens, COLO 201
  EC50: 0.989 µM
Homo sapiens, COLO 205
  EC50: 1.71 µM
Homo sapiens, COLO 320
  EC50: > 8 µM
Homo sapiens, COLO-679
  EC50: > 8 µM
Homo sapiens, COR-L23
  EC50: > 8 µM
Homo sapiens, Calu-1
  EC50: > 8 µM
Homo sapiens, Calu-3
  EC50: > 8 µM
Homo sapiens, Capan-2
  EC50: > 8 µM
Homo sapiens, DBTRG-05MG
  EC50: > 8 µM
Homo sapiens, DMS-114
  EC50: 0.957 µM
Homo sapiens, DOV13
  EC50: > 8 µM
Homo sapiens, DU-145
  EC50: > 8 µM
Homo sapiens, Daoy
  EC50: > 8 µM
Homo sapiens, Detroit 562
  EC50: 1.94 µM
Homo sapiens, EBC-1
  EC50: 0.242 µM
Homo sapiens, EFE-184
  EC50: > 8 µM
Homo sapiens, EFM-19
  EC50: 0.565 µM
Homo sapiens, EFO-21
  EC50: > 8 µM
Homo sapiens, EFO-27
  EC50: > 8 µM
Homo sapiens, FaDu
  EC50: 2.3 µM
Homo sapiens, G-361
  EC50: > 8 µM
Homo sapiens, G-401
  EC50: 0.644 µM
Homo sapiens, GCIY
  EC50: > 8 µM
Homo sapiens, GMS-10
  EC50: 2.8 µM
Homo sapiens, HCC70
  EC50: > 8 µM
Homo sapiens, HCC78
  EC50: > 8 µM
Homo sapiens, HCC1187
  EC50: > 8 µM
Homo sapiens, HCC1569
  EC50: > 8 µM
Homo sapiens, HCC1806
  EC50: > 8 µM
Homo sapiens, HCC1954
  EC50: 0.597 µM
Homo sapiens, HCC2935
  EC50: > 8 µM
Homo sapiens, HCC4006
  EC50: 0.73 µM
Homo sapiens, HCT-15
  EC50: > 8 µM
Homo sapiens, HCT-116
  EC50: > 8 µM
Homo sapiens, HEC-1-A
  EC50: 0.764 µM
Homo sapiens, HEC-1B
  EC50: 2.77 µM
Homo sapiens, HEL 92.1.7
  EC50: > 8 µM
Homo sapiens, HGC-27
  EC50: 0.539 µM
Homo sapiens, HMCB
  EC50: > 8 µM
Homo sapiens, HPAC
  EC50: 0.69 µM
Homo sapiens, HSC-2
  EC50: > 8 µM
Homo sapiens, HT1197
  EC50: > 8 µM
Homo sapiens, HT-29
  EC50: 0.557 µM
Homo sapiens, HT-144
  EC50: > 8 µM
Homo sapiens, HT-1080
  EC50: > 8 µM
Homo sapiens, HT-1376
  EC50: > 8 µM
Homo sapiens, HepG2
  EC50: 0.819 µM
Homo sapiens, Hs 294T
  EC50: > 8 µM
Homo sapiens, Hs 683
  EC50: 3.62 µM
Homo sapiens, Hs 695T
  EC50: > 8 µM
Homo sapiens, Hs746T
  EC50: 0.231 µM
Homo sapiens, Hs-578T
  EC50: > 8 µM
Homo sapiens, HuCCT-1
  EC50: > 8 µM
Homo sapiens, HuH-1
  EC50: 1.38 µM
Homo sapiens, HuP-T3
  EC50: 1.91 µM
Homo sapiens, HuP-T4
  EC50: > 8 µM
Homo sapiens, HuT78
  EC50: > 8 µM
Homo sapiens, IGR-37
  EC50: > 8 µM
Homo sapiens, IGROV-1
  EC50: > 8 µM
Homo sapiens, IMR-32
  EC50: 0.69 µM
Homo sapiens, IPC-298
  EC50: > 8 µM
Homo sapiens, KALS-1
  EC50: > 8 µM
Homo sapiens, KARPAS-299
  EC50: > 8 µM
Homo sapiens, KARPAS-422
  EC50: > 8 µM
Homo sapiens, KMS-12-BM
  EC50: > 8 µM
Homo sapiens, KNS-42
  EC50: > 8 µM
Homo sapiens, KU812
  EC50: > 8 µM
Homo sapiens, KYSE-30
  EC50: > 8 µM
Homo sapiens, KYSE-410
  EC50: > 8 µM
Homo sapiens, KYSE-520
  EC50: > 8 µM
Homo sapiens, L-363
  EC50: 0.804 µM
Homo sapiens, LCLC-103H
  EC50: > 8 µM
Homo sapiens, LN-18
  EC50: > 8 µM
Homo sapiens, LN-229
  EC50: 1.48 µM
Homo sapiens, LOX IMVI
  EC50: > 8 µM
Homo sapiens, LS-123
  EC50: > 8 µM
Homo sapiens, LS-513
  EC50: > 8 µM
Homo sapiens, Lu-99
  EC50: 1 µM
Homo sapiens, M059J
  EC50: > 8 µM
Homo sapiens, MC116
  EC50: > 8 µM
Homo sapiens, MCF7
  EC50: > 8 µM
Homo sapiens, MDA-MB-157
  EC50: > 8 µM
Homo sapiens, MDA-MB-175-VII
  EC50: > 8 µM
Homo sapiens, MDA-MB-415
  EC50: 6.74 µM
Homo sapiens, MDA-MB-436
  EC50: > 8 µM
Homo sapiens, MDA-MB-453
  EC50: 3.41 µM
Homo sapiens, MDA-MB-468
  EC50: > 8 µM
Homo sapiens, MEG-01
  EC50: > 8 µM
Homo sapiens, MES-SA
  EC50: 0.795 µM
Homo sapiens, MFE-280
  EC50: > 8 µM
Homo sapiens, MG-63
  EC50: 0.532 µM
Homo sapiens, MIA PaCa-2
  EC50: > 8 µM
Homo sapiens, MINO
  EC50: 0.489 µM
Homo sapiens, MKN-7
  EC50: > 8 µM
Homo sapiens, MKN-45
  EC50: > 8 µM
Homo sapiens, MKN-74
  EC50: > 8 µM
Homo sapiens, MSTO-211H
  EC50: > 8 µM
Homo sapiens, Malme-3M
  EC50: 0.714 µM
Homo sapiens, NCI-H23
  EC50: > 8 µM
Homo sapiens, NCI-H28
  EC50: 1.98 µM
Homo sapiens, NCI-H211
  EC50: 0.877 µM
Homo sapiens, NCI-H226
  EC50: > 8 µM
Homo sapiens, NCI-H358
  EC50: 1.49 µM
Homo sapiens, NCI-H441
  EC50: 1.35 µM
Homo sapiens, NCI-H520
  EC50: 0.706 µM
Homo sapiens, NCI-H522
  EC50: > 8 µM
Homo sapiens, NCI-H647
  EC50: > 8 µM
Homo sapiens, NCI-H650
  EC50: > 8 µM
Homo sapiens, NCI-H661
  EC50: > 8 µM
Homo sapiens, NCI-H727
  EC50: > 8 µM
Homo sapiens, NCI-H747
  EC50: 3.94 µM
Homo sapiens, NCI-H810
  EC50: > 8 µM
Homo sapiens, NCI-H1048
  EC50: > 8 µM
Homo sapiens, NCI-H1092
  EC50: > 8 µM
Homo sapiens, NCI-H1355
  EC50: 1.06 µM
Homo sapiens, NCI-H1373
  EC50: > 8 µM
Homo sapiens, NCI-H1563
  EC50: > 8 µM
Homo sapiens, NCI-H1573
  EC50: 1.03 µM
Homo sapiens, NCI-H1581
  EC50: > 8 µM
Homo sapiens, NCI-H1648
  EC50: > 8 µM
Homo sapiens, NCI-H1650
  EC50: 2.37 µM
Homo sapiens, NCI-H1651
  EC50: 2.52 µM
Homo sapiens, NCI-H1666
  EC50: > 8 µM
Homo sapiens, NCI-H1693
  EC50: > 8 µM
Homo sapiens, NCI-H1694
  EC50: > 8 µM
Homo sapiens, NCI-H1792
  EC50: 1.5 µM
Homo sapiens, NCI-H1793
  EC50: 0.881 µM
Homo sapiens, NCI-H1944
  EC50: 2.85 µM
Homo sapiens, NCI-H1975
  EC50: > 8 µM
Homo sapiens, NCI-H2009
  EC50: > 8 µM
Homo sapiens, NCI-H2030
  EC50: > 8 µM
Homo sapiens, NCI-H2052
  EC50: 0.528 µM
Homo sapiens, NCI-H2087
  EC50: 0.238 µM
Homo sapiens, NCI-H2122
  EC50: 0.167 µM
Homo sapiens, NCI-H2170
  EC50: 1.54 µM
Homo sapiens, NCI-H2228
  EC50: > 8 µM
Homo sapiens, NCI-H2444
  EC50: > 8 µM
Homo sapiens, NCI-H2452
  EC50: > 8 µM
Homo sapiens, NCI-H3255
  EC50: > 8 µM
Homo sapiens, NCI-N87
  EC50: > 8 µM
Homo sapiens, NUGC-3
  EC50: 0.178 µM
Homo sapiens, NUGC-4
  EC50: 0.715 µM
Homo sapiens, OC-314
  EC50: > 8 µM
Homo sapiens, OCI-AML2
  EC50: 1.18 µM
Homo sapiens, OE33
  EC50: 2.02 µM
Homo sapiens, ONS-76
  EC50: 1.36 µM
Homo sapiens, OV-90
  EC50: > 8 µM
Homo sapiens, OVCAR-3
  EC50: > 8 µM
Homo sapiens, OVCAR-4
  EC50: > 8 µM
Homo sapiens, OVCAR-8
  EC50: > 8 µM
Homo sapiens, OVSAHO
  EC50: 0.613 µM

Reference: paper PMC6219668 (Oncotarget, 2018)
